Measurements published in patent publication US10913727B2, “Modulators of the integrated stress pathway” (Calico Life Sciences LLC, priority 2016, dated 2021).

System: HEK293T cells carrying the ATF4 luciferase reporter
Assay: ATF4-Luc assay, in vitro model of Vanishing Cell White Matter Disease (VWMD)
Assay type: cell-based
Conditions: Homo sapiens, HEK-293T, 1 μg/mL tunicamycin, 7 hours, One Glo luminescence
Procedure, shortened: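 Reporter cells were stably generated by retroviral transduction and puromycin selection, then seeded at 30,000 cells/well. Next day, cells received 1 μg/mL tunicamycin with 200 nM test compound for 7 h, and luciferase luminescence was read with a one-step reagent. Values reported as EC50.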

| Compound | EC50 [nM] |
| --- | --- |
| Cc1nc(C(=O)NC23CCC(NC(=O)COc4ccc(Cl)c(F)c4)(CC2)C(O)C3)nn1C (stereo not drawn) [Compound 657, N-{4-[2-(4-chloro-3-fluorophenoxy)acetamido]-3-hydroxybicyclo[2.2.2]octan-1-yl}-1,5-dimethyl-1H-1,2,4-triazole-3-carboxamide] | > 2000 |
| O=C(COc1ccc(Cl)c(F)c1)NC12CC(NC(=O)c3ccc4ncccc4n3)(C1)C2 [Compound 658, N-{3-[2-(4-chloro-3-fluorophenoxy)acetamido]bicyclo[1.1.1]pentan-1-yl}-1,5-naphthyridine-2-carboxamide] | 50 to 250 |
| O=C(COc1ccc(Cl)c(F)c1)NC12CC(NC(=O)c3ccc4cnccc4n3)(C1)C2 [Compound 659, N-{3-[2-(4-chloro-3-fluorophenoxy)acetamido]bicyclo[1.1.1]pentan-1-yl}-1,6-naphthyridine-2-carboxamide] | 50 to 250 |
| O=C(COc1ccc(Cl)c(F)c1)NC12CC(NC(=O)c3cc4ccccc4cn3)(C1)C2 [Compound 660, N-{3-[2-(4-chloro-3-fluorophenoxy)acetamido]bicyclo[1.1.1]pentan-1-yl}isoquinoline-3-carboxamide] | 250 to 1000 |
| O=C(COc1ccc(Cl)c(F)c1)NC12CC(NS(=O)(=O)c3ccc(Cl)cn3)(C1)C2 [Compound 661, 2-(4-chloro-3-fluorophenoxy)-N-{3-[(5-chloropyridine-2-sulfonyl)amino]bicyclo[1.1.1]pentan-1-yl}acetamide] | > 2000 |
| Cc1ccc(S(=O)(=O)NC23CC(NC(=O)COc4ccc(Cl)c(F)c4)(C2)C3)cc1 [Compound 662, 2-(4-chloro-3-fluorophenoxy)-N-{3-[(4-methylbenzene-1-sulfonyl)amino]bicyclo[1.1.1]pentan-1-yl}acetamide] | > 2000 |
| O=C(COc1ccc(Cl)c(F)c1)NC12CCC(NS(=O)(=O)c3ccc(C(F)(F)F)cc3)(CC1)[C@@H](O)C2 [Compound 663, 2-(4-chloro-3-fluorophenoxy)-N-[(3S)-3-hydroxy-4-{[4-(trifluoromethyl)benzene-1-sulfonyl]amino}bicyclo[2.2.2]octan-1-yl]acetamide] | 50 to 250 |
| Cc1cc(C(=O)NC23CC(NC(=O)COc4ccc(Cl)c(F)c4)(C2)C3)ncc1Cl [Compound 664, 5-chloro-N-{3-[2-(4-chloro-3-fluorophenoxy)acetamido]bicyclo[1.1.1]pentan-1-yl}-4-methylpyridine-2-carboxamide] | 250 to 1000 |
| O=C(COc1ccc(Cl)c(F)c1)NC12CCC(NC(=O)c3cc(C(F)F)cs3)(CC1)C[C@@H]2O [Compound 665, N-{(3S)-4-[2-(4-chloro-3-fluorophenoxy)acetamido]-3-hydroxybicyclo[2.2.2]octan-1-yl}-4-(difluoromethyl)thiophene-2-carboxamide] | < 50 |
| Cc1cnc(C(=O)NC23CCC(NC(=O)COc4ccc(Cl)c(F)c4)(CC2)[C@@H](O)C3)cn1 [Compound 666, N-{(3S)-4-[2-(4-chloro-3-fluorophenoxy)acetamido]-3-hydroxybicyclo[2.2.2]octan-1-yl}-5-methylpyrazine-2-carboxamide] | < 50 |
| O=C(COc1ccc(Cl)c(F)c1)NC12CCC(NC(=O)c3cnc4ccccc4n3)(CC1)C[C@@H]2O [Compound 667, N-{(3S)-4-[2-(4-chloro-3-fluorophenoxy)acetamido]-3-hydroxybicyclo[2.2.2]octan-1-yl}quinoxaline-2-carboxamide] | < 50 |
| CCc1cc(C(=O)NC23CCC(NC(=O)COc4ccc(Cl)c(F)c4)(CC2)[C@@H](O)C3)no1 [Compound 668, N-{(3S)-4-[2-(4-chloro-3-fluorophenoxy)acetamido]-3-hydroxybicyclo[2.2.2]octan-1-yl}-5-ethyl-1,2-oxazole-3-carboxamide] | < 50 |
| O=C(COc1ccc(Cl)c(F)c1)NC12CC(NC(=O)c3ccc4cccnc4n3)(C1)C2 [Compound 669, N-{3-[2-(4-chloro-3-fluorophenoxy)acetamido]bicyclo[1.1.1]pentan-1-yl}-1,8-naphthyridine-2-carboxamide] | 250 to 1000 |
| O=C(COc1ccc(Cl)c(F)c1)NC12CCC(NC(=O)c3cnccn3)(CC1)C[C@@H]2O [Compound 670, N-{(3S)-4-[2-(4-chloro-3-fluorophenoxy)acetamido]-3-hydroxybicyclo[2.2.2]octan-1-yl}pyrazine-2-carboxamide] | < 50 |
| O=C(COc1ccc(Cl)c(F)c1)NC12CCC(NC(=O)c3cc(C(F)F)no3)(CC1)C[C@@H]2O [Compound 671, N-{(3S)-4-[2-(4-chloro-3-fluorophenoxy)acetamido]-3-hydroxybicyclo[2.2.2]octan-1-yl}-3-(difluoromethyl)-1,2-oxazole-5-carboxamide] | < 50 |
| Cc1ncc(C(=O)NC23CCC(NC(=O)COc4ccc(Cl)c(F)c4)(CC2)[C@@H](O)C3)nc1C [Compound 672, N-{(3S)-4-[2-(4-chloro-3-fluorophenoxy)acetamido]-3-hydroxybicyclo[2.2.2]octan-1-yl}-5,6-dimethylpyrazine-2-carboxamide] | 50 to 250 |
| Cc1nc(C(=O)NC23CCC(NC(=O)COc4ccc(Cl)c(F)c4)(CC2)[C@@H](O)C3)n[nH]1 [Compound 673, N-{(3S)-4-[2-(4-chloro-3-fluorophenoxy)acetamido]-3-hydroxybicyclo[2.2.2]octan-1-yl}-5-methyl-1H-1,2,4-triazole-3-carboxamide] | 50 to 250 |

| Compound | EC50 [nM] |
| --- | --- |
| CCc1ncc(C(=O)NC23CC(NC(=O)COc4ccc(Cl)c(Cl)c4)(C2)C3)o1 [Compound 674, N-{3-[2-(3,4-dichlorophenoxy)acetamido]bicyclo[1.1.1]pentan-1-yl}-2-ethyl-1,3-oxazole-5-carboxamide] | < 50 |
| Cc1ncc(C(=O)NC23CC(NC(=O)COc4ccc(Cl)c(Cl)c4)(C2)C3)o1 [Compound 675, N-{3-[2-(3,4-dichlorophenoxy)acetamido]bicyclo[1.1.1]pentan-1-yl}-2-methyl-1,3-oxazole-5-carboxamide] | 50 to 250 |
| O=C(COc1ccc(Cl)c(Cl)c1)NC12CC(NC(=O)c3csc(C(F)(F)F)n3)(C1)C2 [Compound 676, N-{3-[2-(3,4-dichlorophenoxy)acetamido]bicyclo[1.1.1]pentan-1-yl}-2-(trifluoromethyl)-1,3-thiazole-4-carboxamide] | < 50 |
| Cc1cc(C(=O)NC23CC(NC(=O)COc4ccc(Cl)c(F)c4)(C2)C3)ns1 [Compound 677, N-{3-[2-(4-chloro-3-fluorophenoxy)acetamido]bicyclo[1.1.1]pentan-1-yl}-5-methyl-1,2-thiazole-3-carboxamide] | 250 to 1000 |
| Cc1nccnc1NC12CC(NC(=O)COc3ccc(Cl)c(F)c3)(C1)C2 [Compound 678, 2-(4-chloro-3-fluorophenoxy)-N-{3-[(3-methylpyrazin-2-yl)amino]bicyclo[1.1.1]pentan-1-yl}acetamide] | 1000 to 2000 |
| Cc1cc(C(=O)NC23CCC(NC(=O)COc4ccc(Cl)c(F)c4)(CC2)[C@@H](O)C3)sn1 [Compound 679, N-{(3S)-4-[2-(4-chloro-3-fluorophenoxy)acetamido]-3-hydroxybicyclo[2.2.2]octan-1-yl}-3-methyl-1,2-thiazole-5-carboxamide] | < 50 |
| O=C(COc1ccc(Cl)c(F)c1)NC12CCC(NC(=O)c3cc(CO)ccn3)(CC1)C[C@@H]2O [Compound 680, N-{(3S)-4-[2-(4-chloro-3-fluorophenoxy)acetamido]-3-hydroxybicyclo[2.2.2]octan-1-yl}-4-(hydroxymethyl)pyridine-2-carboxamide] | < 50 |
| O=C(COc1ccc(Cl)c(F)c1)NC12CCC(NC(=O)c3cccc(F)c3)(CC1)C[C@@H]2O [Compound 681, N-{(3S)-4-[2-(4-chloro-3-fluorophenoxy)acetamido]-3-hydroxybicyclo[2.2.2]octan-1-yl}-3-fluorobenzamide] | < 50 |
| O=C(COc1ccc(Cl)c(F)c1)NC12CCC(NC(=O)c3ccc(OC(F)(F)F)cn3)(CC1)C[C@@H]2O [Compound 682, N-{(3S)-4-[2-(4-chloro-3-fluorophenoxy)acetamido]-3-hydroxybicyclo[2.2.2]octan-1-yl}-5-(trifluoromethoxy)pyridine-2-carboxamide] | < 50 |
| O=C(COc1ccc(Cl)c(F)c1)NC12CCC(NC(=O)c3ccns3)(CC1)C[C@@H]2O [Compound 683, N-{(3S)-4-[2-(4-chloro-3-fluorophenoxy)acetamido]-3-hydroxybicyclo[2.2.2]octan-1-yl}-1,2-thiazole-5-carboxamide] | < 50 |
| Cc1ccc(C(=O)NC23CC(NC(=O)COc4ccc(Cl)c(F)c4)(C2)C3)c(C)n1 [Compound 684, N-{3-[2-(4-chloro-3-fluorophenoxy)acetamido]bicyclo[1.1.1]pentan-1-yl}-2,6-dimethylpyridine-3-carboxamide] | 1000 to 2000 |
| O=C(COc1ccc(Cl)c(Cl)c1)NC12CC(NC(=O)c3ccc(Cl)c(F)c3)(C1)C2 [Compound 685, 4-chloro-N-{3-[2-(3,4-dichlorophenoxy)acetamido]bicyclo[1.1.1]pentan-1-yl}-3-fluorobenzamide] | < 50 |
| O=C(COc1ccc(Cl)c(F)c1)NC12CC(NC(=O)c3ccc(Cl)cn3)(C1)C2 [Compound 686, 5-chloro-N-{3-[2-(4-chloro-3-fluorophenoxy)acetamido]bicyclo[1.1.1]pentan-1-yl}pyridine-2-carboxamide] | < 50 |
| Cc1ccc(C(=O)NC23CC(NC(=O)COc4ccc(Cl)c(Cl)c4)(C2)C3)c(C)n1 [Compound 687, N-{3-[2-(3,4-dichlorophenoxy)acetamido]bicyclo[1.1.1]pentan-1-yl}-2,6-dimethylpyridine-3-carboxamide] | 250 to 1000 |
| Cc1cncc(NC23CC(NC(=O)COc4ccc(Cl)c(F)c4)(C2)C3)n1 [Compound 688, 2-(4-chloro-3-fluorophenoxy)-N-{3-[(6-methylpyrazin-2-yl)amino]bicyclo[1.1.1]pentan-1-yl}acetamide] | > 2000 |
| O=C(COc1ccc(Cl)c(F)c1)NC12CC(NC(=O)c3cc4ccccn4c3)(C1)C2 [Compound 689, N-{3-[2-(4-chloro-3-fluorophenoxy)acetamido]bicyclo[1.1.1]pentan-1-yl}indolizine-2-carboxamide] | 50 to 250 |
